From patent US20200068890A1 (Person to Whom the Inventor is Obligated to Assign, priority 2017, published 2020) come the findings set out here.

pIC50: −log10 of the molar value.

This assay concerns T1, A. thaliana DHDPS.
T1 construct: AtDHDPS|10|0.00008; no borders, domain or tags given
Briefly: DHDPS-DHDPR coupled assay, dose response inhibitor assay. It counts as biochemical, Arabidopsis thaliana. The procedure: DHDPS enzyme activity was determined using the coupled assay in a Cary 4000 UV/Vis spectrophotometer at 340 nm in 1 cm acrylic cuvettes. A master mix was prepared for each reaction as per Table 1. Reaction mixtures containing enzymes, pyruvate, buffer and NADPH were incubated at 30° C. for 12 mins before the addition of ASA to initiate the reaction. The oxidation of NADPH to NADP^+ was then monitored at 340 nm at 30° C. as a function of time. The initial rate (ΔA340·min^−1) was calculated from the slope of the linear portion of the A340 versus time profile. All experiments were carried out in triplicate. The enzyme kinetic parameters, including KM values, were determined using the Michaelis-Menten equation (Equation 1). Unless otherwise stated, all kinetic data were fitted using the built-in equations in GraphPad Prism.
To determine/C50 values for the inhibitors, A. thaliana DHDPS enzyme activity was measured using the coupled assay (detailed above) in the presence of increasing concentrations of inhibitor. The initial rate was then plotted as a function of the log 10 of the inhibitor concentration and the/C50 determined according to Equation 2.
As a reminder, the pIC50 is −log10 of the IC50, conventionally taken in molar units. Low values mean a high IC50, high ones a low IC50. With `O=C(O)CN1C(=O)S/C(=C\c2ccccc2)C1=O` [Compound 2, (Z)-2-(5-Benzylidene-2,4-dioxothiazolidin-3-yl)acetic Acid], the negative-log IC50 (pIC50) is 4.10.

In turn, `COc1cccc(/C=C2\SC(=O)N(CC(=O)O)C2=O)c1` [Compound 4, (Z)-2-(5-(3-Methoxybenzylidene)-2,4-dioxothiazolidin-3-yl)acetic Acid] had a negative logarithm of the IC50 (pIC50) of 3.96.

Regarding `O=C(O)CN1C(=O)S/C(=C\c2ccccc2Cl)C1=O` [Compound 6, (Z)-2-(5-(2-Chlorobenzylidene)-2,4-dioxothiazolidin-3-yl)acetic Acid], the pIC50 was 3.86.

`O=C(O)CN1C(=O)S/C(=C\c2cccc(Cl)c2)C1=O` [Compound 7, (Z)-2-(5-(3-Chlorobenzylidene)-2,4-dioxothiazolidin-3-yl)acetic Acid] gave a negative logarithm of the IC50 (pIC50) of 3.92.

The compound `O=C(O)CN1C(=O)S/C(=C\c2ccc(Cl)cc2)C1=O` [Compound 8, (Z)-2-(5-(4-Chlorobenzylidene)-2,4-dioxothiazolidin-3-yl)acetic Acid] had a pIC50 of 4.07. The pIC50 values of the last two compounds are within 0.2 log units of each other.

In turn, `O=C(O)CN1C(=O)S/C(=C\c2ccc(Br)cc2)C1=O` [Compound 9, (Z)-2-(5-(4-Bromobenzylidene)-2,4-dioxothiazolidin-3-yl)acetic Acid] showed a pIC50 of 4.13.

For `Cc1ccc(/C=C2\SC(=O)N(CC(=O)O)C2=O)cc1` [Compound 10, (Z)-2-(5-(4-Methylbenzylidene)-2,4-dioxothiazolidin-3-yl)acetic Acid], the pIC50 is 4.10.

Consider `Nc1ccc(/C=C2\SC(=O)N(CC(=O)O)C2=O)cc1` [Compound 11, (Z)-2-(5-(4-Aminobenzylidene)-2,4-dioxothiazolidin-3-yl)acetic Acid], for which the negative-log IC50 (pIC50) was 3.82.

As for `O=C(O)CN1C(=O)S/C(=C\c2ccc(O)cc2)C1=O` [Compound 12, (Z)-2-(5-(4-Hydroxybenzylidene)-2,4-dioxothiazolidin-3-yl)acetic Acid], the negative logarithm of the IC50 (pIC50) was 3.99. The pIC50 values of the last two compounds are within 0.2 log units of each other.

The compound `O=C(O)CN1C(=O)S/C(=C\c2ccc(O)c(Cl)c2)C1=O` [Compound 13, (Z)-2-(5-(3-Chloro-4-hydroxybenzylidene)-2,4-dioxothiazolidin-3-yl)acetic Acid] had a pIC50 of 3.50.

`O=C(O)CN1C(=O)S/C(=C\c2ccccc2O)C1=O` [Compound 14, (Z)-2-(5-(2-Hydroxybenzylidene)-2,4-dioxothiazolidin-3-yl)acetic Acid] showed a negative-log IC50 (pIC50) of 4.10.

Consider `O=C(O)CN1C(=O)S/C(=C\c2cc([N+](=O)[O-])ccc2O)C1=O` [Compound 15, (Z)-2-(5-(2-Hydroxy-5-nitrobenzylidene)-2,4-dioxothiazolidin-3-yl)acetic Acid], for which the negative-log IC50 (pIC50) is 3.82.

Compound `COc1cccc(/C=C2\SC(=O)N(CC(=O)O)C2=O)c1O` [Compound 16, (Z)-2-(5-(2-Hydroxy-3-methoxybenzylidene)-2,4-dioxothiazolidin-3-yl)acetic Acid] had a negative logarithm of the IC50 (pIC50) of 3.90. This pIC50 and that of the compound before are within 0.2 log units of each other.

For the compound `COc1ccc(/C=C2\SC(=O)N(CC(=O)O)C2=O)c(OC)c1` [Compound 17, (Z)-2-(5-(2,4-Dimethoxybenzylidene)-2,4-dioxothiazolidin-3-yl)acetic Acid], the pIC50 is 3.76.

In turn, `O=C1NC(=O)/C(=C/c2ccccc2O)S1` [Compound 19, (Z)-5-(2-Hydroxybenzylidene)thiazolidine-2,4-dione] showed a pIC50 of 3.90. This pIC50 and that of the compound before are within 0.2 log units of each other.

Take `CC(=O)Nc1ccc(/C=C2\SC(=O)N(CC(=O)O)C2=O)cc1` [Compound 20, (Z)-2-(5-(4-Acetamidobenzylidene)-2,4-dioxothiazolidin-3-yl)acetic Acid]: the negative-log IC50 (pIC50) was 4.16.

On to `O=C(O)CN1C(=O)S/C(=C\c2ccc(O)cc2O)C1=O` [Compound 21, 2-(5-(2,4-Dihydroxybenzylidene)-2,4-dioxothiazolidin-3-yl)acetic Acid], for which the pIC50 is 3.79.

With `COc1cccc(/C=C2\SC(=O)N(CC(=O)O)C2=O)c1OC` [Compound 22, 2-(5-(2,3-Dimethoxybenzylidene)-2,4-dioxothiazolidin-3-yl) acetic Acid], the pIC50 is 3.97.

`COc1ccc(/C=C2\SC(=O)N(CC(=O)O)C2=O)cc1OC` [Compound 23, 2-(5-(3,4-Dimethoxybenzylidene)-2,4-dioxothiazolidin-3-yl)acetic Acid] gave a pIC50 of 3.94.

On to `N#Cc1ccc(/C=C2\SC(=O)N(CC(=O)O)C2=O)cc1` [Compound 24, (Z)-2-(5-(4-Cyanobenzylidene)-2,4-dioxothiazolidin-3-yl)acetic Acid], for which the negative logarithm of the IC50 (pIC50) is 4.10. The pIC50 values of the last two compounds are within 0.2 log units of each other.

On to `O=C(O)CN1C(=O)S/C(=C\c2ccc(C(=O)O)cc2)C1=O` [Compound 25, (Z)-4-((3-(Carboxymethyl)-2,4-dioxothiazolidin-5-ylidene)methyl)benzoic Acid], for which the pIC50 was 4.16.

In the case of `CCOc1ccc(/C=C2\SC(=O)N(CC(=O)O)C2=O)cc1` [Compound 26, (Z)-2-(5-(4-Ethoxybenzylidene)-2,4-dioxothiazolidin-3-yl)acetic Acid], the pIC50 is 4.15.

Compound `O=C(O)CN1C(=O)S/C(=C\c2ccc(OC(F)(F)F)cc2)C1=O` [Compound 27, (Z)-2-(2,4-Dioxo-5-(4-(trifluoromethoxy)benzylidene)thiazolidin-3-yl)acetic Acid] showed a pIC50 of 4.01.

`CSc1ccc(/C=C2\SC(=O)N(CC(=O)O)C2=O)cc1` [Compound 28, (Z)-2-(5-(4-(Methylthio)benzylidene)-2,4-dioxothiazolidin-3-yl)acetic Acid] gave a pIC50 of 3.90.

Turning to `O=C(O)CN1C(=O)S/C(=C\c2ccc(C(F)(F)F)cc2)C1=O` [Compound 29, (Z)-2-(2,4-Dioxo-5-(4-(trifluoromethyl)benzylidene)thiazolidin-3-yl)acetic Acid], the negative-log IC50 (pIC50) is 3.91.

In the case of `O=C(O)CN1C(=O)S/C(=C\c2cccs2)C1=O` [Compound 30, (Z)-2-(2,4-Dioxo-5-(thiophen-2-ylmethylene)thiazolidin-3-yl)acetic Acid], the negative logarithm of the IC50 (pIC50) was 4.15.

The compound `O=C(O)CN1C(=O)S/C(=C\c2ccsc2)C1=O` [Compound 31, (Z)-2-(2,4-Dioxo-5-(thiophen-3-ylmethylene)thiazolidin-3-yl)acetic Acid] showed a negative logarithm of the IC50 (pIC50) of 4.09.

For the compound `O=C(O)CN1C(=O)S/C(=C\c2c[nH]cn2)C1=O` [Compound 32, (Z)-2-(5-((1H-Imidazol-4-yl)methylene)-2,4-dioxothiazolidin-3-yl)acetic Acid], the pIC50 was 4.03.

Compound `CN(C)c1ccc(/C=C2\SC(=O)N(CC(=O)O)C2=O)cc1` [Compound 33, (Z)-2-(5-(4-(Dimethylamino)benzylidene)-2,4-dioxothiazolidin-3-yl)acetic Acid] gave a pIC50 of less than 3.30.

Take `O=C(O)CN1C(=O)S/C(=C\c2ccccn2)C1=O` [Compound 34, (Z)-2-(2,4-Dioxo-5-(pyridin-2-ylmethylene)thiazolidin-3-yl)acetic Acid]: the pIC50 is 4.09.

On to `O=C(O)CN1C(=O)S/C(=C\c2cccnc2)C1=O` [Compound 35, (Z)-2-(2,4-Dioxo-5-(pyridin-3-ylmethylene)thiazolidin-3-yl)acetic Acid], for which the pIC50 is 3.86.

With `O=C(O)CN1C(=O)S/C(=C\c2ccncc2)C1=O` [Compound 36, (Z)-2-(2,4-Dioxo-5-(pyridin-4-ylmethylene)thiazolidin-3-yl)acetic Acid], the pIC50 was 4.04.

The compound `COc1ccc(/C=C2\SC(=O)N(CC(=O)O)C2=O)cn1` [Compound 37, (Z)-2-(5-((6-Methoxypyridin-3-yl)methylene)-2,4-dioxothiazolidin-3-yl)acetic Acid] had a pIC50 of 4.34.

Take `O=C(O)CN1C(=O)S/C(=C\c2cccc3ccccc23)C1=O` [Compound 38, (Z)-2-(5-(Naphthalen-1-ylmethylene)-2,4-dioxothiazolidin-3-yl)acetic Acid]: the pIC50 was 4.01. Compared with the last compound, the pIC50 is 0.33 log units lower.

Take `O=C(O)CN1C(=O)S/C(=C\c2ccc3ccccc3c2)C1=O` [Compound 39, (Z)-2-(5-(Naphthalen-2-ylmethylene)-2,4-dioxothiazolidin-3-yl)acetic Acid]: the pIC50 is 4.12. The pIC50 values of the last two compounds are within 0.2 log units of each other.

Compound `O=C(O)CN1C(=O)S/C(=C\c2ccc3ccccc3n2)C1=O` [Compound 40, 2-(2,4-Dioxo-5-(quinolin-2-ylmethylene)thiazolidin-3-yl)acetic Acid] gave a negative-log IC50 (pIC50) of 3.96.

In the case of `O=C(O)CN1C(=O)S/C(=C\c2ccc(OCc3ccccc3)cc2)C1=O` [Compound 41], the pIC50 is 4.15.

As for `COc1ccc(/C=C2\SC(=S)N(CC(=O)O)C2=O)cc1` [Compound 43, (Z)-2-(5-(4-Methoxybenzylidene)-4-oxo-2-thioxothiazolidin-3-yl)acetic Acid], the pIC50 is 3.27.

`COc1ccc(/C=C2\NC(=S)N(CC(=O)O)C2=O)cc1` [Compound 44, (Z)-2-(4-(4-Methoxybenzylidene)-5-oxo-2-thioxoimidazolidin-1-yl)acetic Acid] gave a pIC50 of 3.65.

As for `COc1ccc(/C=C2\SC(=O)NC2=O)cc1` [Compound 45, (Z)-5-(4-Methoxybenzylidene)thiazolidine-2,4-dione], the negative-log IC50 (pIC50) was 4.15.

Consider `COc1ccc(/C=C2\SC(=S)NC2=O)cc1` [Compound 46, (Z)-5-(4-Methoxybenzylidene)-2-thioxothiazolidin-4-one], for which the pIC50 is less than 3.60.

`COc1ccc(/C=C2\NC(=S)NC2=O)cc1` [Compound 47, (Z)-5-(4-Methoxybenzylidene)-2-thioxoimidazolidin-4-one]: the negative-log IC50 (pIC50) is 3.49.

Turning to `COc1ccc(/C=C2\SC(=N)NC2=O)cc1` [Compound 48, (Z)-2-Imino-5-(4-methoxybenzylidene)thiazolidin-4-one], the pIC50 was 3.81.
